Assay results from patent US20170367390A1, “USE OF ELLAGIC ACID DIHYDRATE IN FOOD PRODUCTS AND NUTRACEUTICALS” (HALO LIFE SCIENCE, LLC, priority 2014, published 2017).

What was measured:
Activity level in mice = type: in vivo, mouse; conditions: predicted from in vitro data of Example 5
From the text: Activity levels in mice treated with ellagic acid dihydrate may be quantified by several procedures, such as those outlined in Turri, M. et al.; QTL Analysis Identifies Multiple Behavioral Dimensions in Ethological Tests of Anxiety in Laboratory Mice; Current Biology; 2001; 11(10): 725-734. Two examples of procedures taught therein follows. Gross Locomotor Activity in Home Cage: Mice are caged singly several days prior to home cage activity monitoring and subsequent testing. Activity in home cages are measured during the first 2 hours of the dark cycle on two consecutive days. Two infrared photo emitter-detector pairs, located outside the clear plastic home cage that divide the cage into three equal areas, are used to record gross locomotor activity on the floor of the home cage as the animal breaks the photo beams. The beam-break activity score consists of the square root of the number of beam breaks for each detector summed across the two test days. Magnitude of Activity in Home Cage: Mice are caged singly several days prior to home cage activity monitoring and subsequent testing. Activity in home cages are measured during the first 2 hours of the dark cycle on two consecutive days. An infrared motion detector located above the top of the home cage is employed to converts all motion sensed within the home cage into arbitrary units, based on the magnitude of activity detected.

[1] = Saturation of test compound in 100% DMSO; type: physicochemical
Method: General Procedure. For Examples 2 through 7, all test compounds of interest were initially dissolved in 100% DMSO. Estimated saturation occurred at approximately 4 mM for ellagic acid dihydrate. The saturated solution was diluted 1:10 in 1×PBS; creating a 100× stock solution of 400 μM ellagic acid dihydrate. Working concentrations (1×), 4 μM, and more dilute concentrations of ellagic acid dihydrate were created by 1:10 dilutions into 0.1% DMSO. The resulting six dilutions ranged from 4 μM to 0.04 nM. Dose curves were analyzed using either Harmony software on the Operetta (Perkin Elmer) or Excel (Microsoft) for flow cytometry, which was performed on a BD Accuri (BD Biosciences).

glucose oxidase = glucose oxidase (Aspergillus niger, UniProt P13006); test: Direct interaction with glucose, glucose oxidase based glucometer on serum; type: biochemical; conditions: incubated with serum at room temperature five minutes or overnight at 37° C.
Method: Ellagic acid dihydrate was analyzed for direct interaction with glucose. A glucose oxidase based glucometer was used to measure serum glucose. Ellagic acid dihydrate was incubated with serum at room temperature for five minutes or overnight at 37° C. […] Ellagic acid dihydrate is not believed to directly interact with glucose.

GLUT4-GFP = test: Localization of glucose transporter GLUT4-GFP, time-lapse confocal microscopy in C2C12; type: cell-based, mouse
Method: Induction of glucose transporter, GLUT-4, in ellagic acid dihydrate treated cell cultures was studied. Cellular assays were performed using mouse myoblast C2C12 cells. The cells were infected with a fusion glucose transporter 4 green fluorescent protein (GLUT4-GFP). This protein allows the visualization of GLUT4 by imaging the GFP under fluorescent time-lapse microscopy. Frames were compiled to produce time-lapse images of cellular changes with no treatment or treatment with insulin. The localization of glucose transporter (GLUT4-GFP) was performed in final incubation volume of 505 μL, consisting of 500 μl of Hank's Buffer (Invitrogen) and 5 μl of tested compounds. Insulin was used as positive controls and vehicle (0.1% DMSO) as the negative control. All test compounds were prepared in 10% DMSO and diluted 1:100 for a final concentration of 0.1% DMSO (vehicle). The cells were rinsed in Hank's Buffer thrice and then incubated in Hank's Buffer at 37° C. for one hour. The test compounds were added (ellagic acid dihydrate, insulin, or vehicle) and the cells were imaged using laser-confocal microscopy (Leica TCS SP5 X) with FITC fluorescent filters to determine changes in GLUT4-GFP localization. Time-lapse images (TIF) were collected and post-processed using Image-J (NIH) for video construction.

MEF cells = test: Glucose uptake, 2-NBDG labeling, high-content imaging (Operetta), MEFs; type: cell-based, mouse
Method: Increased glucose uptake was indicated as increasing signal of 2-NBDG ([…]) in cells. Glucose uptake assays were carried out in a final incubation volume of 50 μl consisting of, 2-NBDG), (100 μM) in 1× Phosphate Buffered Saline w/Ca+, Mg+ (PBS++). The same buffer was used for washing cells. Insulin was used as a positive control. All testing compounds were prepared in 10% DMSO and diluted 1:100 for a final concentration of 0.1% DMSO (vehicle). Cells were culture to 70-90% confluence and then washed twice with PBS++. Cells were incubated for 30 minutes at 37° C. in PBS++. Nuclear stain, HCS CellMask stain (blue, Invitrogen), and/or testing compounds (ellagic acid dihydrate, insulin, or vehicle) were added. Cells were incubated for 30 min at 37° C. Cells were washed twice with PBS++ and incubated with 2-NBDG for 10 minutes. Cells were washed thrice with PBS++ and then imaged in PBS++. Alternatively, the final PBS wash was removed and cells were incubated with Accutase (Invitrogen) for 10 min at 37° C., neutralized with 10% FBS in 1×PBS, and analyzed by flow cytometry. An additional experiment was performed to measure glucose uptake in C2Cl2 cells exposed to metformin, insulin and ellagic acid dihydrate 2 (batch 2). FIG. 5C. Glucose uptake in ellagic acid dihydrate treated cell culture was measured and compared to glucose uptake under insulin or ellagic acid treatment. […] Flow cytometry results were run in triplicate with 1000 cells per batch.

Chain of glucose oxidase (P13006 17-605, species assumed): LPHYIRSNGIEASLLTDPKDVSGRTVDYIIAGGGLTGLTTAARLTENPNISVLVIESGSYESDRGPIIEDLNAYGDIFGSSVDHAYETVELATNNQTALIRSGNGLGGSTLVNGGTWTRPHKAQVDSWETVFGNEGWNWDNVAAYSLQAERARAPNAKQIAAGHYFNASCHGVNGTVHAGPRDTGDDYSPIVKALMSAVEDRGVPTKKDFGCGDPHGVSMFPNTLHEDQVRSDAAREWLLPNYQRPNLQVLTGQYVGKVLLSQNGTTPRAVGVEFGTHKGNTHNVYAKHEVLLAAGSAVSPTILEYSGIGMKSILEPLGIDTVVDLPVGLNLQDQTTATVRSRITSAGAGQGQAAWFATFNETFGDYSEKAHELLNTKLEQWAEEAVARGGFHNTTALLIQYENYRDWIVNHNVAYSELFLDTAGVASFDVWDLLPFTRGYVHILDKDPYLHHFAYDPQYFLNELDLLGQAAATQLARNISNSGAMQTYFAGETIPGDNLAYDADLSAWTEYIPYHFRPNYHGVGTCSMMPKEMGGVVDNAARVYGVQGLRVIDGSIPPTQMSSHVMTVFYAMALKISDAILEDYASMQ

## O.O.O=c1oc2c(O)c(O)cc3c(=O)oc4c(O)c(O)cc1c4c23 [ellagic acid dihydrate]
Activity level in mice
  activity level compared to mice treated with ellagic acid: significantly greater activity level
[1]
  Estimated saturation: approximately 4 mM
Glucose oxidase
  inhibition of the glucose oxidase reaction: no inhibition of the glucose oxidase reaction was observed
GLUT4-GFP; C2C12, 4000 nM
  timing of GLUT4-GFP/membrane process compared with insulin: slightly delayed
GLUT4-GFP; C2C12, 4000 nM exposure
  GLUT4-GFP localization: decrease in nuclear GLUT4-GFP
  ruffling of filopodia at the surface of the cell: rapid ruffling of filopodia at the surface of the cell
MEF cells
  dose effect for increasing glucose uptake: dose effect for increasing glucose uptake
MEF cells; versus vehicle (Neg, 0.1% DMSO)
  glucose uptake (2-NBDG signal): significantly greater than vehicle treated (Neg, 0.1% DMSO) or Insulin treated cells
